According to patent US10631540B2, “Plant disease control composition, and plant disease control method” (Sumitomo Chemical Company, Limited, priority 2015, dated 2020):

Experiments:
[1] = system: Pythium damping-off pathogen (Pythium irregulare); assay: Soybean seed treatment test against Pythium damping-off (Test Example 1); type: in vivo; conditions: soybean (Hatayutaka) seed treatment; dose rate gai/100 kg seed where present: ethaboxam 3.75, metalaxyl 1.0, oxathiapiprolin 3.75; grown 15° C. 5 days then 25° C. 10 days
Experimental: An acetone solution containing the compounds was prepared such that the amounts of compounds to be treated for seeds were set to the dose rate listed in Table 1. 10 g of seeds of soybean (Hatayutaka) and 80 μl of the acetone solution were added to a plastic container, the container was covered with a lid and then shaken, and then the seeds taken out of the container were left overnight, thereby obtaining treated seeds. A plastic pot was filled with culture soil, and the treated seeds were sowed and then were covered with culture soil mixed with seeds of grass turf which was infected with Pythium damping-off pathogen (Pythium irregulare). After irrigation, the seeds were grown at 15° C. for 5 days and then grown at 25° C. for 10 days. This area was set to a treated area. Further, soybeans were grown in the same manner as in the treated area except that a chemical agent was not applied to the seeds. This area was set to a non-treated area. The incidence of disease of plants in the treated area and the non-treated area were calculated using the following “Equation 1”. The control values were calculated using the following “Equation 2”. […] A: Incidence of disease of plants of non-treated area B: Incidence of disease of plants of treated area

[2] = system: Pythium damping-off pathogen (Pythium ultimum); assay: Soybean seed treatment test against Pythium damping-off (Test Example 2); type: in vivo; conditions: soybean (Hatayutaka) seed treatment; dose rate gai/100 kg seed where present: ethaboxam 3.75, metalaxyl 1.0, oxathiapiprolin 3.75; grown 15° C. 5 days then 25° C. 10 days
Experimental: An acetone solution containing the compounds was prepared such that the amounts of compounds to be treated for seeds were set to the dose rate listed in Table 2. 10 g of seeds of soybean (Hatayutaka) and 80 μl of the acetone solution were added to a plastic container, the container was covered with a lid and then shaken, and then the seeds taken out of the container were left overnight, thereby obtaining treated seeds. A plastic pot was filled with culture soil, and the treated seeds were sowed and then were covered with culture soil mixed with seeds of grass turf which was infected with Pythium damping-off pathogen (Pythium ultimum). After irrigation, the seeds were grown at 15° C. for 5 days and then grown at 25° C. for 10 days. This area was set to a treated area. Further, soybeans were grown in the same manner as in the treated area except that a chemical agent was not applied to the seeds. This area was set to a non-treated area. The incidence of disease of plants in the treated area and the non-treated area were calculated using the above-described “Equation 1”. The control values were calculated using the above-described “Equation 2”.

Row | Compound | Control value (%) [1] [%] | Control value (%) [2] [%]
1 | CCNc1nc(CC)c(C(=O)NC(C#N)c2cccs2)s1 (stereo not drawn) [Ethaboxam, ethaboxam] | 9 | 14
2 | COCC(=O)N(c1c(C)cccc1C)C(C)C(=O)OC (racemic) [Metalaxyl, metalaxyl] | 6 | 0
3 | Cc1cc(C(F)(F)F)nn1CC(=O)N1CCC(c2nc(C3=NOC(c4c(F)cccc4F)C3)cs2)CC1 (stereo not drawn) [Oxathiapiprolin, oxathiapiprolin] | 6 | 14
